Results on eleven compounds are retold here after patent publication US20110195505A1, “BACTERIAL STRAINS FOR BUTANOL PRODUCTION” (priority 2009, published 2011).

The test system of this test is BP63 (L. plantarum PN0512ΔpyrFΔfabZ1). The test is described as follows: Fatty acid supplements supporting growth of the fabZ1 mutant. The format is cell-based. The following applies: fatty acid supplied at 80 mg/L; overnight incubation, OD600. How it is done:
With 100 or 200 mg/liter of oleic acid the growth of BP63 was equivalent to that of the fabZ1^+ control strain, BP15. […] Thus, we conclude that fabZ1 in L. plantarum has the same function as FabN in E. faecalis (Wang, H. and Cronan, J. E. 2004. Functional replacement of the FabA and FabB proteins of Escherichia coli fatty acid synthesis by Enterococcus faecalis FabZ and FabF homologs. J. Biol. Chem. 279, 34489-95). To further test the range of fatty acid supplements that support growth of the fabZ1 mutant, several other fatty acids were supplied at 80 mg/L to the semi-synthetic LAB medium as described above. BP63 and the parental control BP15 were inoculated from the working stocks. After overnight incubation, the OD600 was measured. The growth of BP15 was not inhibited by any of the fatty acids tested. The Table 9 below summarizes the results for the fabZ1 mutant strain, BP63.

As to `CCCCCCCC/C=C/CCCCCCCC(=O)O` [Elaidic], the “Supports growth of BP63” value was “YES”. For `CCCCCCCC/C=C\CCCCCCCCCCCC(=O)O` [Erucic], the “Supports growth of BP63” value was “Very slight growth”.

Turning to `CCCCC/C=C\C/C=C\CCCCCCCC(=O)O` [Linoleic], the “Supports growth of BP63” value was “YES”. The result for `CCCCCCCCCCCCCC(=O)O` [Myristic, Tetradecanoic Acid] reads “no”. With `CCCCCCCCCCCCCCCC(=O)O` [Palmitic, Hexadecanoic Acid] the entry was “no”; with `CCCCCC/C=C\CCCCCCCC(=O)O` [Palmitoleic], “YES”. In the case of `CCCCCCCC/C=C\CCCCCCCCCC(=O)O` [cis 11-eicosenoic], the “Supports growth of BP63” value is listed as “YES”.

Turning to `CCCCCC/C=C\CCCCCCCCCCCC(=O)O` [cis 13 eicosenoic], the “Supports growth of BP63” value is “no”.

In the case of `CCCCC/C=C\C/C=C\CCCCCCCCCC(=O)O` [cis-11,14-Eicosadienoic], the “Supports growth of BP63” value is reported as “Partial growth”. The result for `CCCCCC/C=C\CCCCCCCCCC(=O)O` [cis-Vaccenic] reads “YES”; that for `CCCCCCCC[C@@H]1C[C@@H]1CCCCCCCC(=O)O` [dihydrosterculic, Dihydrosterculic acid], “YES”.
